From US6605639B1, “Ligands of nuclear receptor” (Nuclear Receptor Research, Ltd., priority 1998, dated 2003)

Columns and labels:
male Wistar rats [1] = assay: Sterol balance and bile acid excretion in rats; type: in vivo, rat; conditions: High cholesterol feed
Method: Feed-origin cholesterol and neutral sterol and acidic sterol in the feces of rats, to which the compounds of the present invention had been administered, were determined to monitor sterol balance and changes in the bile acid composition in feces. […] Further, the bile was sampled with the passage of time from rats having been subjected to cholangiostomy and bile acids thereof were determined. […] Male Wistar rats weighting about 250 g were divided into groups each having 6 to 8 animals. […] […] The feces were collected on the days 6 and 10. Then sterols were extracted therefrom in a conventional manner, acidic sterols and neutral sterols were determined. On the other hand, cholesterol in the feed was also determined so as to calculate the amount of feed-origin sterol.

male Wistar rats [2] = assay: Oral administration of Compound-5 to rats: toxicity and Compound-1 in the blood
Method: Male Wistar rats (n=4) weighing about 200 g were employed and the concentration of Compound-1 contained in the serum was expressed in mean±SE (FIG. 9).
In FIG. 9, open circles show a case wherein Compound-5 was solubilized with HCO-60 and orally administered in a dose of 2 mg/kg.
Solid circles show a case wherein Compound-5 was suspended in an acacia solution and orally administered in a dose of 20 mg/kg. Per part of the serum collected with the passage of time, ethanol containing 1% of acetic acid was added and the mixture was allowed to stand in the dark at room temperature for 7 days. Then Compound-1 was determined by high performance liquid chromatography.
Open squares show a case wherein Compound-5 was suspended in an acacia solution and orally administered. Then the blood was collected at definite points and Compound-1 was determined by high performance liquid chromatography immediately thereafter. […] Separately, Compound-5 suspended in an acacia solution was orally administered to rats having been cannulated into the portal vein. Then the portal blood was collected with the passage of time and Compound-1 was determined.

[3] = test system: rats given streptozotocin; assay: Relief of onset of streptozotocin-induced diabetes; type: in vivo, rat; conditions: male SD rats, streptozotocin 50 mg/kg i.v.; 10 mg/kg/day oral, 14 days from 24 hours after; Mean ± SE
Method: Eighteen male Wistar rats weighing about 200 g were divided into 3 groups at random. To the animals of 2 groups, 45 mg/kg of streptozotocin was intravenously administered. One of these groups was regarded as a control group, while the other was regarded as the Compound-6 administration group. To the remaining 1 group which was regarded as the normal control group, a 1/10 M citrate buffer (pH 3.5) […] was intravenously administered. Immediately after the administration of streptozotocin, a suspension of Compound-6 in acacia was orally administered once a day continuously for 10 days in a dose of 20 mg/kg/day. To other groups, an acacia solution alone was administered. After fasting for 6 hours after the final administration, blood was collected from the heart of each animal and the blood glucose level and the blood insulin level were measured. As the data given in Table 7a show, the oral administration of Compound-6 inhibited an increase in the blood glucose level and a decrease in the blood insulin level.
Eighteen male SD rats weighing about 250 g were divided into 3 groups at random. […] To the normal control group and the streptozotocin control group, the acacia solution alone was administered orally. After fasting for 6 hours after the final administration, blood was collected from the heart of each animal and the blood glucose level and the blood insulin level were measured. As the data given in Table 7b show, the oral administration of Compound-5 inhibited an increase in the blood glucose level and a decrease in the blood insulin level.

male ICR and ddY mice = assay: Serum total cholesterol lowering effect in mice; type: in vivo, mouse; conditions: 8 days; for Serum total cholesterol, % change: vs control; for Serum total cholesterol: Mean±SE
Excerpt: Effect of serum cholesterol lowering agents varies among animals. Namely, some agents which are effective on a certain animal exert […] on others. For example, compactin, which is an HMG CoA reductase inhibitor, cannot lower the serum total cholesterol level when administered to rodents such as rat or mouse. This is because even though HMG CoA reductase is inhibited in the rodent liver, the enzyme is biosynthesized in an amount in excess of that for compensating the inhibition so that the inhibitory effect is negated. Accordingly, it is favorable to calibrate the effect of lowering serum total cholesterol level in as many animals as possible. Concerning the effect of the compounds of the present invention on the serum total cholesterol level, an assay was made with the use of mice. After adding these compounds to a standard powdery feed for rat and mouse, the resultant mixtures were molded into pellets and given for 8 days to male ICR and ddY mice aged 5 weeks. In the afternoon of the day 8, the blood of each animal was collected from the heart and the total cholesterol in the serum was determined. The doses were determined as the maximum dose, in which body weight gain was not suppressed after orally administering for 1 week, and as the ¼ dose thereof.
Each value is represented in Mean±SE (n=10). a) In the case of Compound-1, the control group consisted of 23 animals while the 0.04% and 0.01% groups each consisted of 12 animals.

RAR = molecular target: T1, RAR (Homo sapiens, UniProt P10276); assay: RAR reporter gene (luciferase) transfer assay in COS-1 cells; type: cell-based; conditions: control lot = 1
T1 construct: expressed in transfected cells; host or cells: COS-1 cells
T1 sequence (P10276 1-462): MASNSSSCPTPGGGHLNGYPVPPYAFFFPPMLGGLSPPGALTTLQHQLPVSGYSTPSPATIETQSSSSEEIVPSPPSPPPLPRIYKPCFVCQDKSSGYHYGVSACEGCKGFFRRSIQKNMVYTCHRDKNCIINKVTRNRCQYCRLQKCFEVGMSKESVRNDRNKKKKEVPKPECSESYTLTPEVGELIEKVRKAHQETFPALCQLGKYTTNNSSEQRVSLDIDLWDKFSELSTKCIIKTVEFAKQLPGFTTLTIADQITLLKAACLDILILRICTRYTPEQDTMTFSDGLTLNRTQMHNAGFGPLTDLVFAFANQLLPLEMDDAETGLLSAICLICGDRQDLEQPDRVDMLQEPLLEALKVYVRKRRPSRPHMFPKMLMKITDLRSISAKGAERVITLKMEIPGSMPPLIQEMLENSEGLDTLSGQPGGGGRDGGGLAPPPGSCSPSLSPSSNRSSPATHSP
Excerpt: Each value means the degree of increase in the luciferase activity, which is expressed by referring the luciferase activity in the control lot as to 1, caused by the addition of the corresponding compound.
As a substitute for a plasmid containing a luciferase gene under the regulation in expression by RXR response element (pRXRL:RXRE-SV40 luciferase), and the RXRα expression plasmid (pRXRα); a plasmid containing a luciferase gene under the regulation in expression by RXR response element (pRARL:RASE-SV40 luciferase), and a […] (pRARα) were transferred into COS-1 cells. Transfectants with these plasmids and the compound of the present invention (concentration: 10^−4 to 10^−7 M) were added to the culture.
(§1) After sucking off the medium from the Petri dish, […] of a cultured cell lysing solution (25 mM Tris phosphate buffer (pH 7.8), 2 mM 1,2-diaminocyclohexane-N, N,N′,N′-tetraacetate, 10% glycerol, 1% Triton X-100) was added and the cells were peeled off with a rubber policeman and collected. After completely disrupting the cells by freezing and melting, the cells were centrifuged at 4° C. (15,000 rpm, 2 min) and the supernatant thus obtained was employed as a sample for measurement. To 20 ml of the supernatant, 100 ml of a luciferase substrate solution (2.14 mg of Co-A, 100 ml of 470 mM D-Luciferin, 200 ml of 530 mM ATP, 2 ml of DTT-Tricine buffer (pH 7.8)) was added and the fluorescence intensity was measured with a luminometer (ATTO Luminosensor AB-2000). To measure the β-galactosidase for determining the gene transfer efficiency, using a Luminescent β-galactosidase detection kit II (Clontech), fluorescence intensity was measured by a luminometer.

human RXRα = molecular target: T2, human RXRα (Homo sapiens, UniProt P19793); assay: RXR reporter gene (luciferase) transfer assay in COS-1 cells; type: cell-based; conditions: 2 × 10^−5 M
T2 construct: expressed in transfected cells; host or cells: COS-1 cells
T2 sequence (P19793 1-462): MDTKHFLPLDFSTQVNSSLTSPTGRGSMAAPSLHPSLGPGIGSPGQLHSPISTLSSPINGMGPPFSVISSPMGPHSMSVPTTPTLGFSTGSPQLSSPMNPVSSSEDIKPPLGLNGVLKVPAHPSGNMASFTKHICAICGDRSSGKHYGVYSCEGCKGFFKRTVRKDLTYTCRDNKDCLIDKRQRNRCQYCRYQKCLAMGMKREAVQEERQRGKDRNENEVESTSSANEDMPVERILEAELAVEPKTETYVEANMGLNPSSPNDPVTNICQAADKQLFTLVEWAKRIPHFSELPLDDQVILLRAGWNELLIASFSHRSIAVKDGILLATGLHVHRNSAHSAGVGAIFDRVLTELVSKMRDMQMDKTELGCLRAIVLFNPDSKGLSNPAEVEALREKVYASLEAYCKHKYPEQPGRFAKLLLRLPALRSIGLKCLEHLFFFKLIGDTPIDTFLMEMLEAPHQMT
Method: A plasmid containing a reporter gene regulated in expression by RXR response element and an RXRα expression plasmid were transferred into COS-1 cells. Then these cells were treated with the compounds of the present invention such as ascochlorin.
Plasmids were transferred into COS-1 cells. Gene transfer was carried out in a conventional manner with the use of Lipofect AMINE reagent (Life Technologies). 1×10^5 cells were dispersed in 2 ml of Dulbecco's modified Eagle medium (DMEM) containing 10% of fetal calf serum and poured into a 35 mm Petri dish. After culturing in a CO2 incubator for 17 hours, the medium was removed and the cells adhering to the Petri dish were washed with phosphate-buffered saline (PBS). Then gene transfer was carried out by using Lipofect AMINE reagent. Namely, 500 ml of a minimum serum medium OptiMEM (Life Technologies) containing […] of a plasmid containing a luciferase gene under the regulation in expression by RXR response element (PRXRL: RXRE-SV40 luciferase; a reporter gene plasmid wherein RXRE has been ligated to SV40 promoter and luciferase cDNA, under the regulation in expression thereby, has been located downstream thereof); […] of an RXRα expression plasmid (pRXRα; a plasmid wherein human RXRα CDNA has been ligated to the downstream of a cytomegalovirus promoter to express human RXRα in mammalian cells); and 2 mg of a β-galactosidase gene plasmid to assess the gene transfer ratio (pCH110; Pharmacia) were pre-mixed with 500 ml of OptiMEM containing 50 ml of Lipofec AMINE, and the resultant mixture was maintained at room temperature for 15 minutes. 100 ml of this liquid mixture was mixed with 400 ml of OptiMEM, and the medium mixture was divided to the Petri dish. After maintaining in a CO2 incubator at 37° C. for 3 hours, the gene transfer medium was sucked off from the Petri dish and DMEM medium containing a test substance and 10% of serum (activated carbon-treated) was added thereto followed by culturing at 37° C. for 20 hours. […] Further, dimethyl sulfoxide (final concentration: 0.1%) was added as the solvent for the test substance.
as §1

white rabbits = assay: Inhibition of arteriosclerosis in white rabbits fed high fat feed; conditions: 0.2% in high fat feed, 14 weeks
Method: Thus, a high fat feed was prepared by adding 10% of hardened coconut oil, 2% of cholesterol, 0.5% of bovine bile powder and 0.04% or 0.01% of ascochlorin to a powdery marketed standard white rabbit feed and molded the mixture into pellets. Separately, another high fat feed for the control group was prepared without using ascochlorin.
Twenty-four white rabbits weighing about 2 kg were divided into 4 groups at random. One of these groups was regarded as the control group, while the remaining 3 groups were respectively regarded as the clofibrate group, the ascochlorin 0.01% group and the ascochlorin 0.04% group at random. Then the experiment was carried out for 14 weeks.

[4] = test system: hereditary obese diabetic mice ob/ob and db/db; conditions: oral; cited from earlier work

CC(/C=C/C1(C)C(C)CCC(=O)C1C)=C\Cc1c(O)c(C=O)c(C)c(Cl)c1OCCCC(=O)O (centres unmarked) [compound 16]
Sterol balance (male Wistar rats [1]; administration 5 days): +15.12 mg/day
Sterol in feces, Acidic sterol (male Wistar rats [1]; administration 5 days): 8.67 mg/day
Sterol in feces, Cholesterol (male Wistar rats [1]; administration 5 days): 246.30 mg/day
Sterol in feces, Coprosterol (male Wistar rats [1]; administration 5 days): 41.05 mg/day
excretion increase (male Wistar rats [1]; administration 5 days): 8.95 mg/day
Sterol balance (male Wistar rats [1]; administration 10 days): +28.52 mg/day
Sterol in feces, Acidic sterol (male Wistar rats [1]; administration 10 days): 9.93 mg/day
Sterol in feces, Cholesterol (male Wistar rats [1]; administration 10 days): 233.08 mg/day
Sterol in feces, Coprosterol (male Wistar rats [1]; administration 10 days): 58.27 mg/day
excretion increase (male Wistar rats [1]; administration 10 days): 34.07 mg/day

CC(=O)Oc1c(Cl)c(C)c(C=O)c(O)c1CC=C(C)C=CC1(C)C(C)CCC(=O)C1C (centres unmarked) [Compound-5, acetylASC]
time within which all of the rats died following administration (male Wistar rats [2]; 2 mg/kg oral, solubilized with HCO-60, n=4): ≤ 1 h
lethality (male Wistar rats [2]; rat, suspended in a 2% acacia solution, 200 mg/kg): not killed
free Compound-1 in the blood after administration of Compound-5 (male Wistar rats [2]; suspended in acacia solution, oral, determined immediately by HPLC): no free Compound-1 was detected
Blood glucose [3]: 237.2 ± 26.31 mg/dL
Serum IRI [3]: 15.5 ± 2.16 mU/ml
Serum total cholesterol, % change (male ICR and ddY mice; 0.01% in feed): −13%
Serum total cholesterol (male ICR and ddY mice; 0.01% in feed): 132 ± 6.1 mg/dL
Serum total cholesterol, % change (male ICR and ddY mice; 0.04% in feed): −27%
Serum total cholesterol (male ICR and ddY mice; 0.04% in feed): 117 ± 3.3 mg/dL

COc1c(C=O)c(C)c(Cl)c(O)c1CC=C(C)C=CC1(C)C(C)CCC(=O)C1C (centres unmarked) [Compound-10, 2-O-methylASC]
degree of increase in the luciferase activity, RAR vector (RAR; 2 × 10^−5 M): 40
Serum total cholesterol, % change (male ICR and ddY mice; 0.01% in feed): −30%
Serum total cholesterol (male ICR and ddY mice; 0.01% in feed): 130 ± 4.5 mg/dL
Serum total cholesterol, % change (male ICR and ddY mice; 0.04% in feed): −34%
Serum total cholesterol (male ICR and ddY mice; 0.04% in feed): 122 ± 3.0 mg/dL
fold increase in luciferase reporter activity (control = 1) (human RXRα): 1.45
degree of increase in the luciferase activity, RXR vector (human RXRα; control lot = 1): 58

CC(/C=C/[C@@]1(C)[C@H](C)CCC(=O)[C@@H]1C)=C\Cc1c(O)c(C=O)c(C)c(Cl)c1OC(=O)c1cccnc1 [compound 19, 4-O-nicotinoylASC]
Serum total cholesterol, % change (male ICR and ddY mice; 0.01% in feed): −13%
Serum total cholesterol (male ICR and ddY mice; 0.01% in feed): 91 ± 4.5 mg/dL
Serum total cholesterol, % change (male ICR and ddY mice; 0.04% in feed): −16%
Serum total cholesterol (male ICR and ddY mice; 0.04% in feed): 88 ± 3.0 mg/dL

COc1c(Cl)c(C)c(C=O)c(OC)c1CC=C(C)C=CC1(C)C(C)CCC(=O)C1C (centres unmarked) [compound 7, 2,4-dimethylASC]
Serum total cholesterol, % change (male ICR and ddY mice; 0.04% in feed): −31%
Serum total cholesterol (male ICR and ddY mice; 0.04% in feed): 120 ± 5.9 mg/dL

CCOC(=O)C(C)(C)Oc1ccc(Cl)cc1 [clofibrate, reference compound]
animals died from circulatory insufficiency due to obstruction in the coronary artery (white rabbits): 2 animals among six

C=C(c1ccc(C(=O)O)cc1)c1cc2c(cc1C)C(C)(C)CCC2(C)C [LGD1069]
blood glucose levels, serum neutral fat levels and serum insulin levels [4]: drastically lower

CC1=C(/C=C/C(C)=C/C=C/C(C)=C/C(=O)O)C(C)(C)CCC1 [All-trans retinoic acid, reference compound]
degree of increase in the luciferase activity, RAR vector (RAR; 10^−7 M): 46
